Laboratory results as given in the supplement of paper PMC10307832.

Columns and labels:
Assay in all cases: relative viability (nuclei count vs DMSO), 5 days (fraction); higher = more cells survive
[1] = compound: C[C@@]1(C(=O)Nc2ccc(F)nc2)CCCN1c1nc(Nc2cc(C3CC3)n[nH]2)c2cccn2n1 + Cc1nc(NC(=O)N2CCC[C@H]2C(N)=O)sc1-c1ccnc(C(C)(C)C(F)(F)F)c1 [Alpelisib] (partner 2 µM)
Method in brief: (§1)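 Five library-drug doses in √10 steps were combined with a fixed anchor-drug dose, or a single drug was given alone, by pin tool to lung cancer cell lines in 1536-well plates the day after seeding. Nuclei were stained and counted after 5 days. Relative viability is the nuclei count in treated wells over that in vehicle wells, taken as the median of duplicate plates.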

[2] = compound: CC1(C)CNc2cc(NC(=O)c3cccnc3NCc3ccncc3)ccc21 [Motesanib] + N=C(N)NC(=N)NCCc1ccccc1 [Phenformin] (partner 250 µM)
Method in brief: as §1

[3] = compound: CC1(C)CNc2cc(NC(=O)c3cccnc3NCc3ccncc3)ccc21 [Motesanib] + CC1(C)CCC(c2ccc(Cl)cc2)=C(CN2CCN(c3ccc(C(=O)NS(=O)(=O)c4ccc(N[C@H](CCN5CCOCC5)CSc5ccccc5)c(S(=O)(=O)C(F)(F)F)c4)cc3)CC2)C1 [Navitoclax] (partner 0.5 µM)
Method in brief: as §1

[4] = compound: C[C@@]1(C(=O)Nc2ccc(F)nc2)CCCN1c1nc(Nc2cc(C3CC3)n[nH]2)c2cccn2n1 + CCNC(=O)c1noc(-c2cc(C(C)C)c(O)cc2O)c1-c1ccc(CN2CCOCC2)cc1 [Luminespib] (partner 0.01 µM)
Method in brief: as §1

Cell Line | relative viability ([1]; first compound 0.04 µM) | relative viability ([1]; first compound 0.1265 µM) | relative viability ([1]; first compound 0.4 µM) | relative viability ([1]; first compound 1.265 µM) | relative viability ([2]; first compound 0.01 µM) | relative viability ([2]; first compound 0.03162 µM) | relative viability ([2]; first compound 0.1 µM) | relative viability ([2]; first compound 0.3162 µM) | relative viability ([2]; first compound 1 µM) | relative viability ([3]; first compound 0.01 µM) | relative viability ([3]; first compound 0.03162 µM) | relative viability ([3]; first compound 0.1 µM) | relative viability ([3]; first compound 0.3162 µM) | relative viability ([3]; first compound 1 µM) | relative viability ([4]; first compound 0.04 µM) | relative viability ([4]; first compound 0.1265 µM) | relative viability ([4]; first compound 0.4 µM) | relative viability ([4]; first compound 1.265 µM)
201T | 0.893 | 0.836 | 0.767 | 0.942 | 0.377 | 0.44 | 0.485 | 0.48 | 0.427 | 1.2 | 1.21 | 1.21 | 1.19 | 1.2 | 0.878 | 0.84 | 0.799 | 1.02
A549 | 0.638 | 0.392 | 0.333 | 0.35 | 0.0998 | 0.109 | 0.165 | 0.178 | 0.247 | 1.19 | 1.23 | 1.17 | 1.34 | 1.32 |  |  |  | 
A-427 | 1.08 | 1.09 | 1.03 | 1.16 | 0.239 | 0.294 | 0.319 | 0.374 | 0.323 | 1.01 | 0.989 | 1.06 | 1.02 | 1.02 | 1.03 | 0.957 | 0.639 | 0.881
ABC-1 | 0.875 | 0.845 | 0.659 | 0.945 | 0.238 | 0.229 | 0.223 | 0.229 | 0.242 |  |  |  |  |  | 0.63 | 0.519 | 0.244 | 0.308
BEN | 1.16 | 1.37 | 0.929 | 1.16 | 0.257 | 0.259 | 0.229 | 0.253 | 0.272 | 0.0507 | 0.0585 | 0.0627 | 0.0938 | 0.0672 | 0.381 | 0.487 | 0.641 | 0.325
CAL-12T | 1.16 | 1.14 | 0.762 | 0.953 | 0.562 | 0.487 | 0.61 | 0.627 | 0.534 | 1.34 | 1.47 | 1.3 | 1.24 | 1.28 | 0.446 | 0.391 | 0.487 | 0.116
COR-L23 | 0.721 | 0.711 | 0.563 | 0.412 | 0.468 | 0.456 | 0.494 | 0.531 | 0.43 | 1.01 | 0.936 | 1.08 | 1.06 | 0.972 | 0.714 | 0.65 | 0.449 | 0.45
COR-L 105 | 0.871 | 0.805 | 0.689 | 0.806 | 0.485 | 0.499 | 0.538 | 0.573 | 0.463 | 1.01 | 0.805 | 0.853 | 0.818 | 0.851 | 0.672 | 0.62 | 0.624 | 0.685
Calu-6 | 1.05 | 0.932 | 0.888 | 0.455 |  |  |  |  |  | 0.877 | 0.748 | 0.852 | 0.758 | 0.76 |  |  |  | 
ChaGo-K-1 |  |  |  |  | 0.473 | 0.436 | 0.509 | 0.499 | 0.528 |  | 0.691 | 0.862 | 1.03 | 1.21 | 0.519 | 0.503 | 0.455 | 0.613
EBC-1 | 1.04 | 0.608 | 0.642 | 0.431 |  |  |  |  |  | 0.48 | 0.419 | 0.377 | 0.47 | 0.417 |  |  |  | 
EKVX | 0.837 | 0.672 | 0.581 | 0.666 | 0.225 | 0.231 | 0.242 | 0.248 | 0.24 | 0.88 | 1.11 | 1.06 | 0.989 | 0.961 | 0.804 | 0.67 | 0.683 | 0.935
EMC-BAC-2 | 0.634 | 0.664 | 0.613 | 0.818 | 0.527 | 0.507 | 0.581 | 0.56 | 0.539 | 1.18 | 1.15 | 1.22 | 1.19 | 1.13 | 0.863 | 0.941 | 0.713 | 0.857
EPLC-272H | 1.03 | 0.876 | 0.719 | 1.1 | 0.253 | 0.333 |  | 0.338 | 0.247 | 1.16 | 0.905 | 1.3 | 1.04 | 1.26 | 0.214 |  | 0.187 | 0.272
H3255 | 0.713 | 0.771 | 0.514 | 0.699 | 0.357 | 0.367 | 0.364 | 0.394 | 0.35 | 0.507 | 0.603 | 0.544 | 0.506 | 0.529 | 1.02 | 0.982 | 0.89 | 0.811
HARA | 0.73 | 0.681 | 0.569 | 0.697 | 0.479 | 0.433 | 0.435 | 0.431 | 0.359 | 1.11 | 1.18 | 1.21 | 1.2 | 1.22 | 0.72 | 0.73 | 0.585 | 0.881
HCC-15 | 0.896 | 0.757 | 0.829 | 0.937 | 0.416 | 0.376 | 0.497 | 0.527 | 0.503 | 0.69 | 0.718 | 0.713 | 0.773 | 0.748 | 0.481 | 0.364 | 0.55 | 0.417
HCC-44 | 0.666 | 0.698 | 0.552 | 0.783 | 0.129 | 0.174 | 0.252 | 0.309 | 0.209 | 0.986 | 0.96 | 0.994 | 1.04 | 0.997 | 0.829 | 0.744 | 0.623 | 0.732
HCC-78 | 0.321 | 0.196 | 0.23 | 0.257 | 0.605 | 0.73 | 0.715 | 0.822 | 0.707 | 0.817 | 0.862 | 0.825 | 0.818 | 0.947 |  |  |  | 
HCC-366 | 0.205 | 0.162 | 0.141 | 0.163 | 0.628 | 0.53 | 0.619 | 0.643 | 0.587 | 0.917 | 0.975 | 0.972 | 0.998 | 1.19 |  |  |  | 
